# Assay: Liquid dish neat product liquid-air partition coefficient
# Format: physicochemical
# Conditions: not given
row,SMILES,Log of liquid dish neat product liquid-air partition coefficient (Comment Code K/L)
1,C=C1C2CCC(C2)C1(C)CCC=C(C)CO (stereo not drawn) [Material 616],K (Log of liquid dish neat product liquid-air partition coefficient greater than or equal to −7)
2,C=CC(C)(CCC=C(C)C)OC(C)OCC (stereo not drawn) [Material 916],K (Log of liquid dish neat product liquid-air partition coefficient greater than or equal to −7)
3,C=C(C)C1CCC2(C)CCC=C(C)C2C1 (stereo not drawn) [Material 774],K (Log of liquid dish neat product liquid-air partition coefficient greater than or equal to −7)
4,CC1=CCC(O)(C(C)C)CC1 (stereo not drawn) [Material 791],K (Log of liquid dish neat product liquid-air partition coefficient greater than or equal to −7)
5,CC1=CCCC2(C)CCC(C(C)(C)O)CC12 (stereo not drawn) [Material 712],K (Log of liquid dish neat product liquid-air partition coefficient greater than or equal to −7)
6,CCC(=O)OC(C)(C)C1CC=C(C)CC1 (stereo not drawn) [Material 686],K (Log of liquid dish neat product liquid-air partition coefficient greater than or equal to −7)
7,C=CCCCCCCCCC=O [Material 871],K (Log of liquid dish neat product liquid-air partition coefficient greater than or equal to −7)
8,CC(C)(O)Cc1ccccc1 [Material 649],K (Log of liquid dish neat product liquid-air partition coefficient greater than or equal to −7)
9,CCCCCC=CC=CC(=O)OCC [Material 951],K (Log of liquid dish neat product liquid-air partition coefficient greater than or equal to −7)
10,CCCCCC(=O)Oc1ccc(C)cc1 [Material 939],K (Log of liquid dish neat product liquid-air partition coefficient greater than or equal to −7)
11,CC1CCC2C(C)(C)C3CC12CCC3(C)OC=O (stereo not drawn) [Material 566],K (Log of liquid dish neat product liquid-air partition coefficient greater than or equal to −7)
12,CCCCCCCCCCC=O [Material 1102],K (Log of liquid dish neat product liquid-air partition coefficient greater than or equal to −7)
13,CC1C(C)(C)C2=C(C(=O)CCC2)C1(C)C (stereo not drawn) [Material 572],K (Log of liquid dish neat product liquid-air partition coefficient greater than or equal to −7)
14,CC1=CC2C(C(C)C)CCC(C)(O)C2CC1 (stereo not drawn) [Material 1047],K (Log of liquid dish neat product liquid-air partition coefficient greater than or equal to −7)

# Same assay, conditions: class code letter within Comment Code
row,SMILES,Log of liquid dish neat product liquid-air partition coefficient (Comment Code K/L)
1,CCOC(=O)C1C2C=CC(C2)C1C(C)C (stereo not drawn) [Material 280],K (Log of liquid dish neat product liquid-air partition coefficient greater than or equal to −7)
2,CC(C)=CCC/C(C)=C\CO [Material 64],K (Log of liquid dish neat product liquid-air partition coefficient greater than or equal to −7)
3,CC1(C)CCc2ccc(CCC=O)cc21 [Material 260],K (Log of liquid dish neat product liquid-air partition coefficient greater than or equal to −7)
4,C=CCCC(=O)/C=C/C1C(C)=CCCC1(C)C (stereo not drawn) [Material 559],K (Log of liquid dish neat product liquid-air partition coefficient greater than or equal to −7)
5,C=CC(C)=CCCC(C)(C)O [Material 42],K (Log of liquid dish neat product liquid-air partition coefficient greater than or equal to −7)
6,CC1OCC(c2ccccc2)O1 (stereo not drawn) [Material 190],K (Log of liquid dish neat product liquid-air partition coefficient greater than or equal to −7)
7,CC(C)C1OC2(CCCC2)OCC1(C)C (stereo not drawn) [Material 25],K (Log of liquid dish neat product liquid-air partition coefficient greater than or equal to −7)
8,C=CCCC(=O)C1CCCC(C)(C)C1 (stereo not drawn) [Material 334],K (Log of liquid dish neat product liquid-air partition coefficient greater than or equal to −7)
9,CCCCCCCC1CCCC(=O)O1 (stereo not drawn) [Material 463],K (Log of liquid dish neat product liquid-air partition coefficient greater than or equal to −7)
10,CCCCCCCC(=O)OCc1ccco1 [Material 336],K (Log of liquid dish neat product liquid-air partition coefficient greater than or equal to −7)
11,CC=Cc1ccc(OC)c(OC)c1 [Material 108],K (Log of liquid dish neat product liquid-air partition coefficient greater than or equal to −7)
12,OCC=Cc1ccccc1 [Material 555],K (Log of liquid dish neat product liquid-air partition coefficient greater than or equal to −7)
13,COC(C=C(C)CCC=C(C)C)OC [Material 520],K (Log of liquid dish neat product liquid-air partition coefficient greater than or equal to −7)
14,CCC(C)=CCCC(C)=CC#N [Material 158],K (Log of liquid dish neat product liquid-air partition coefficient greater than or equal to −7)
15,CC(=O)c1ccc2ccccc2c1 [Material 120],K (Log of liquid dish neat product liquid-air partition coefficient greater than or equal to −7)
16,CCOC(=O)C1C(CC)=CCCC1(C)C (stereo not drawn) [Material 294],K (Log of liquid dish neat product liquid-air partition coefficient greater than or equal to −7)
17,CC/C=C\CCOC(=O)C/C=C\CC [Material 534],K (Log of liquid dish neat product liquid-air partition coefficient greater than or equal to −7)
18,CCCCCCOC(=O)c1ccccc1 [Material 271],K (Log of liquid dish neat product liquid-air partition coefficient greater than or equal to −7)
19,C=CC(C)(O)CCC=C(C)CCC=C(C)C (stereo not drawn) [Material 63],K (Log of liquid dish neat product liquid-air partition coefficient greater than or equal to −7)
20,CC=CC(=O)C1C(C)C=CCC1(C)C (stereo not drawn) [Material 466],K (Log of liquid dish neat product liquid-air partition coefficient greater than or equal to −7)
21,CC(C)=CCCC(C)=CCCC(C)=CCO [Material 369],K (Log of liquid dish neat product liquid-air partition coefficient greater than or equal to −7)

# Same assay, conditions: code letters K, L
row,SMILES,Comment Code: Log of liquid dish neat product liquid-air partition coefficient
1,C=C1C2CCC(C2)C1(C)CCC=C(C)CO (stereo not drawn) [Material 616],K (Log of liquid dish neat product liquid-air partition coefficient greater than or equal to −7)
2,C=CC(C)(CCC=C(C)C)OC=O (stereo not drawn) [Material 150],K (Log of liquid dish neat product liquid-air partition coefficient greater than or equal to −7)
3,CC(C)c1ccc(CC=O)cc1 [Material 977],K (Log of liquid dish neat product liquid-air partition coefficient greater than or equal to −7)
4,CC(=O)OC(C)c1ccccc1 (stereo not drawn) [Material 1041],K (Log of liquid dish neat product liquid-air partition coefficient greater than or equal to −7)
5,CCOc1cc(COC)ccc1O [Material 115],K (Log of liquid dish neat product liquid-air partition coefficient greater than or equal to −7)
6,CC1(C)CCc2ccc(CCC=O)cc21 [Material 260],K (Log of liquid dish neat product liquid-air partition coefficient greater than or equal to −7)
7,CC1=CCCC2(C)CCC(C(C)(C)O)CC12 (stereo not drawn) [Material 712],K (Log of liquid dish neat product liquid-air partition coefficient greater than or equal to −7)
8,CC(C)C(=O)OCCc1ccccc1 [Material 958],K (Log of liquid dish neat product liquid-air partition coefficient greater than or equal to −7)
9,COc1cc(C)ccc1O [Material 492],K (Log of liquid dish neat product liquid-air partition coefficient greater than or equal to −7)
10,C[C@H]1[C@@H]2C[C@H](C[C@@]13C=CC(=O)CC3)C2(C)C [Material 1143],K (Log of liquid dish neat product liquid-air partition coefficient greater than or equal to −7)
11,CC(O)CCC1CCCCC1 (stereo not drawn) [Material 699],K (Log of liquid dish neat product liquid-air partition coefficient greater than or equal to −7)
12,CCC(C)(C)C1CCC(O)CC1 (stereo not drawn) [Material 995],K (Log of liquid dish neat product liquid-air partition coefficient greater than or equal to −7)
13,CC1CCC2C(C)(C)C3CC12CCC3(C)OC=O (stereo not drawn) [Material 566],K (Log of liquid dish neat product liquid-air partition coefficient greater than or equal to −7)
14,O=Cc1ccc2c(c1)OCO2 [Material 287],K (Log of liquid dish neat product liquid-air partition coefficient greater than or equal to −7)
15,COC(C)(C)CCCC(C)C=O (stereo not drawn) [Material 125],K (Log of liquid dish neat product liquid-air partition coefficient greater than or equal to −7)
16,C/C=C(\C)C(=O)OCCc1ccccc1 [Material 960],K (Log of liquid dish neat product liquid-air partition coefficient greater than or equal to −7)
17,CC(=O)OC(C)CC(C)(C)c1ccccc1 (stereo not drawn) [Material 1134],K (Log of liquid dish neat product liquid-air partition coefficient greater than or equal to −7)
18,CC(=O)OC(C)(C)C1CC=C(C)CC1 (stereo not drawn) [Material 687],K (Log of liquid dish neat product liquid-air partition coefficient greater than or equal to −7)

# Same assay, conditions: codes K/L of the Comment Code, Table 1
row,SMILES,Comment Code: Log of liquid dish neat product liquid-air partition coefficient
1,C[C@H]1[C@@H]2C[C@H](C[C@@]13C=CC(=O)CC3)C2(C)C [Material 1143],K (Log of liquid dish neat product liquid-air partition coefficient greater than or equal to −7)

# Source: patent publication US20160090556A1, “PRODUCTS COMPRISING MALODOR REDUCTION MATERIALS” (The Procter & Gamble Company, priority 2014, published 2016)
